Measurements published in patent US7375111B2, “Compositions for affecting weight loss” (priority 2003, dated 2008).
Values joined by “and” are separate entries in the source; they are usually repeats but may differ in a detail not shown here. Equal values may be shown once.

How the values were obtained:
C57/B16J mice = assay: Dose-response experiments: cumulative food intake after intraperitoneal injection in fasted mice; conditions: food removed the day before
Description: Cumulative food intake±SEM was calculated and analyzed using Prizm. […] From the curve, the EC50 at each time point for each drug was determined.

POMC neurons [1] = assay: Electrophysiology: cell-attached recordings of action potential frequency of POMC-EGFP neurons in hypothalamic (ARC) slices; conditions: applied to the bath for 3 min
Description: Under ultraviolet (450-480 nm) excitation, POMC neurons were clearly distinguished from adjacent, non-fluorescent neurons visualized under infrared optics.
200 μm thick coronal slices were cut from the ARC of four-week old male POMC-EGFP mice. […] Recordings were made in Krebs at 35° C. Slices were visualized on an Axioskop FS2 plus (Zeiss) through standard infra red optics and using epifluorescence through a FITC (longpass) filter set. […] Cell-attached recordings were made from fluorescent neurons using an Axopatch 200B amplifier (Axon Instruments) and Clampex 8 (Axon Instruments). Action potentials frequencies were determined using an event detection program (Mini Analysis; Synaptosoft Inc., Decatur, Ga.). Drugs were applied to the bath for 3 min.
Data were analyzed by determining the average firing rate for 500 sec prior to drug addition, and analyzing treatments relative to this frequency (that is, firing rates were normalized to the pre-treatment frequency).

POMC neurons [2] = conditions: Heisler et al., Science 297(5581):609-11 (2002); cited from earlier work
[3] = in vivo; cited from earlier work

SMILES | Cumulative food intake expressed as a proportion of the food intake in saline treated animals, MEAN (C57/B16J mice; Hour 1 post-injection) | Cumulative food intake expressed as a proportion of the food intake in saline treated animals, MEAN (C57/B16J mice; Hour 2 post-injection) | Cumulative food intake expressed as a proportion of the food intake in saline treated animals, MEAN (C57/B16J mice; Hour 4 post-injection) | Cumulative food intake expressed as a proportion of the food intake in saline treated animals, MEAN (C57/B16J mice; Hour 8 post-injection) | Cumulative food intake expressed as a proportion of the food intake in saline treated animals, MEAN (C57/B16J mice; headed Hour 8 a second time) | Mean effect of the drug alone on firing rate, normalized to the pre-treatment frequency (POMC neurons [1]) | Effect of fenfluramine alone (POMC neurons [2]) | Physiological half life [3]
COCCCC/C(=N\OCCN)c1ccc(C(F)(F)F)cc1 [Fluvoxamine, fluvoxamine] | 0.77 | 0.85 | 0.95 | 0.91 | 0.92 |  |  | 
Cc1c(C(=O)NN2CCCCC2)nn(-c2ccc(Cl)cc2Cl)c1-c1ccc(I)cc1 [AM 251, N-(piperidin-1-yl)-1-(2,4-dichlorophenyl)-5-(4-iodophenyl)-4-methyl-1H-pyrazole-3-carboxamide] | 0.97 | 0.85 | 0.88 | 0.90 | 0.99 |  |  | 
NCCc1ccc(O)c(O)c1 [Dopamine] |  |  |  |  |  | 11X (n = 9) |  | 
CC(NC(C)(C)C)C(=O)c1cccc(Cl)c1 (centres unmarked) [Bupropion, bupropion] | 0.32 | 0.64 | 0.97 | 0.96 | 0.99 |  |  | 
CCNC(C)Cc1cccc(C(F)(F)F)c1 (centres unmarked) [Fenfluramine, fenfluramine] |  |  |  |  |  | 2X increase (n = 6) | 200% | 
O=C1CC[C@@]2(O)[C@H]3Cc4ccc(O)c5c4[C@@]2(CCN3CC2CC2)[C@H]1O5 [Naltrexone, naltrexone] | 0.41 and 0.30 | 0.77 and 0.56 | 0.99 and 0.83 | 1.1 and 0.98 | 0.98 and 1.01 |  |  | 
C=C1CC[C@@]2(O)[C@H]3Cc4ccc(O)c5c4[C@@]2(CCN3CC2CC2)[C@H]1O5 [Nalmefene, nalmefene] | 0.0083 | 0.11 | 0.57 | 0.81 | 0.98 |  |  | 
CNCCC(Oc1ccc(C(F)(F)F)cc1)c1ccccc1 (centres unmarked) [Fluoxetine, fluoxetine] | 0.36 | 0.57 | 0.68 | 0.76 | 1.05 | 3X (n = 1) |  | about 9 hours
